Data on nine molecules can be found in patent US8247351B2, “Insecticidal compositions having improved effect” (Bayer Cropscience AG, priority 2005, dated 2012).

What all share (type): in vivo
In experiment [1] the test system is Myzus persicae. Kind of experiment: Myzus persicae test, Example D (sprayed to runoff, ammonium salt boosting). On the procedure:
(§1) Solvent: 7 parts by weight dimethylformamide
(§2) Emulsifier: 2 parts by weight alkylaryl polyglycol ether
An appropriate preparation of active ingredient is prepared by mixing 1 part by weight of active ingredient with the stated amounts of solvent and emulsifier and diluting the concentrate with water to the desired concentration. For the application with ammonium salts or phosphonium salts, these salts are added in a concentration of 1000 ppm to the spray liquor.
Paprika plants (Capsicum annum) heavily infested by the green peach aphid (Myzus persicae) are treated by being. sprayed to runoff with the preparation of active ingredient at the desired concentration. After the desired time the destruction in % is ascertained. 100% means that all of the animals have been killed; 0% means that no animals have been killed.

In experiment [2] the test system is Aphis gossypii. The experiment is described as follows: Aphis gossypii test, Example E (sprayed to runoff, ammonium salt boosting). The procedure: as §1, §2
An appropriate preparation of active ingredient is prepared by mixing 1 part by weight of active ingredient with the stated amounts of solvent and emulsifier and diluting the concentrate with emulsifier-containing water to the desired concentration. For the application with ammonium salts or phosphonium salts, these salts are added in a concentration of 1000 ppm to the spray liquor.
(§3) Cotton plants (Gossypium hirsutum) heavily infested by the cotton aphid (Aphis gossypii) are sprayed to runoff with the preparation of active ingredient at the desired concentration.
(§4) After the desired time the destruction in % is ascertained. 100% means that all of the aphids have been killed; 0% means than no aphids were killed.

Experiment [3] has as its system Myzus persicae. Kind of experiment: Myzus persicae test, Example F (sprayed to runoff, ammonium salt plus penetrant). On the procedure: as §1, §2
An appropriate preparation of active ingredient is prepared by mixing 1 part by weight of active ingredient with the stated amounts of solvent and emulsifier and diluting the concentrate with water to the desired concentration. For the application with ammonium salts or phosphonium salts and penetrant (rapeseed oil methyl ester 500 EW), they are each added in a concentration of 1000 ppm to the spray liquor.
After the desired time the destruction in % is ascertained. 100% means that all of the animals have been killed; 0% means that no animals have been killed.

Experiment [4] has as its system Aphis gossypii. Kind of experiment: Aphis gossypii test, Example G (sprayed to runoff, ammonium salt plus penetrant). On the procedure: as §1, §2
An appropriate preparation of active ingredient is prepared by mixing 1 part by weight of active ingredient with the stated amounts of solvent and emulsifier and diluting the concentrate with emulsifier-containing water to the desired concentration. For the application with ammonium salts or phosphonium salts and penetrants (rapeseed oil methyl esters 500 EW), they are each added in a concentration of 1000 ppm a.i. to the spray liquor.
as §3, §4

[5] abbreviates: 0.8 ppm active ingredient, +AS (1000 ppm).
The mark [6] stands for this setting: 0.8 ppm active ingredient, no additive.
The mark [7] stands for this setting: 0.8 ppm active ingredient, +RME (1000 ppm).
Where [8] appears, read: 0.8 ppm active ingredient, +RME +AS (each 1000 ppm).
Where [9] appears, read: 20 ppm active ingredient, +AS (1000 ppm).
Where [10] appears, read: 20 ppm active ingredient, no additive.
[11] abbreviates: 20 ppm active ingredient, +RME (1000 ppm).
[12] abbreviates: 20 ppm active ingredient, +RME +AS (each 1000 ppm).
[13] abbreviates: 4 ppm active ingredient, +AS (1000 ppm).
The mark [14] stands for this setting: 4 ppm active ingredient, +RME (1000 ppm).
[15] abbreviates: 4 ppm active ingredient, +RME +AS (each 1000 ppm).
[16] abbreviates: 4 ppm active ingredient, no additive.

For the molecule `Cc1cc(C)c(C2=C(O)C3(CCC(C)CC3)NC2=O)c(C)c1` (centres unmarked) [Example I-1-a-8], the “Degree of destruction/% after 6 days” value is 55% in experiment [1] (setting [5]); 20% in experiment [1] (setting [6]); 40% in experiment [2] (setting [5]); 0% in experiment [2] (setting [6]); 55% in experiment [3] (setting [5]); 60% in experiment [3] (setting [7]). For the same molecule, the “Degree of destruction/% after 6 days” value in experiment [3] (setting [8]) came to 80%; in experiment [3] (setting [6]), 20%; in experiment [4] (setting [5]), 40%; in experiment [4] (setting [7]), 20%; in experiment [4] (setting [8]) it was 60%; in experiment [4] (setting [6]) it was 0%.
With `Cc1ccc(-c2ccc(Cl)cc2)cc1C1=C(O)C(C)(C)OC1=O` [Example I-2-a-3], the “Degree of destruction/% after 6 days” value was determined as 15% in experiment [1] (setting [9]); 0% in experiment [1] (setting [10]); 30% in experiment [2] (setting [9]); 0% in experiment [2] (setting [10]); 15% in experiment [3] (setting [9]); 35% in experiment [3] (setting [11]). Also, the “Degree of destruction/% after 6 days” value was 80% in experiment [3] (setting [12]); 0% in experiment [3] (setting [10]); 5% in experiment [4] (setting [13]); 0% in experiment [4] (setting [14]); 15% in experiment [4] (setting [15]); 0% in experiment [4] (setting [16]). Also, the “Degree of destruction/% after 6 days” value in experiment [4] (setting [9]) was 30%; in experiment [4] (setting [11]), 0%; in experiment [4] (setting [12]), 65%; in experiment [4] (setting [10]), 0%.
Turning to `COc1cc(C)cc(C)c1-c1c(O)c(C)c(-c2ccccn2)oc1=O` [Example I-4-a-1], the “Degree of destruction/% after 6 days” value is on record as 45% in experiment [1] (setting [13]); 0% in experiment [1] (setting [16]); 95% in experiment [1] (setting [9]); 75% in experiment [1] (setting [10]); 40% in experiment [2] (setting [13]); 0% in experiment [2] (setting [16]). The “Degree of destruction/% after 6 days” value in experiment [3] (setting [5]) worked out at 5%; in experiment [3] (setting [7]), 0%; in experiment [3] (setting [8]), 40%; in experiment [3] (setting [6]), 0%; in experiment [4] (setting [5]), 15%; in experiment [4] (setting [7]), 0%. In addition, the results for the “Degree of destruction/% after 6 days” value in experiment [4] (setting [8]) and in experiment [4] (setting [6]) were 45% and 0%, respectively.
For the molecule `Cc1ccc(-c2ccc(Cl)cc2)cc1C1=C(O)C(C)(C)C(C)(C)OC1=O` [Example I-10-a-1], the “Degree of destruction/% after 6 days” value in experiment [1] (setting [9]) was 25%; in experiment [1] (setting [10]), 0%; in experiment [2] (setting [9]), 45%; in experiment [2] (setting [10]) it was 0%; in experiment [3] (setting [13]), 5%; in experiment [3] (setting [14]), 20%. Besides, the “Degree of destruction/% after 6 days” value in experiment [3] (setting [15]) came to 55%; in experiment [3] (setting [16]), 0%; in experiment [3] (setting [9]), 25%; in experiment [3] (setting [11]), 65%; in experiment [3] (setting [12]) it was 99%; in experiment [3] (setting [10]), 0%. Also, the “Degree of destruction/% after 6 days” value in experiment [4] (setting [9]) came out at 45%; in experiment [4] (setting [11]) it was 45%; in experiment [4] (setting [12]), 70%; in experiment [4] (setting [10]) it was 0%.
As for `COc1cc(C)cc(Cl)c1C1=C(O)C2(CCC(OC)CC2)OC1=O` (centres unmarked) [Example I-2-a-4], the “Degree of destruction/% after 6 days” value amounted to 80% in experiment [1] (setting [9]); 60% in experiment [1] (setting [10]); 45% in experiment [2] (setting [5]); 10% in experiment [2] (setting [6]); 90% in experiment [2] (setting [13]); 70% in experiment [2] (setting [16]). The “Degree of destruction/% after 6 days” value is given as 0% in experiment [3] (setting [13]); 0% in experiment [3] (setting [14]); 70% in experiment [3] (setting [15]); 0% in experiment [3] (setting [16]); 45% in experiment [4] (setting [5]); 45% in experiment [4] (setting [7]). Also, the “Degree of destruction/% after 6 days” value in experiment [4] (setting [8]) is recorded as 70%; in experiment [4] (setting [6]) it was 10%.
Turning to `CO[C@H]1CC[C@]2(CC1)NC(=O)C(c1c(C)cc(I)cc1C)=C2O` [Example I-1-a-7], the “Degree of destruction/% after 6 days” value in experiment [1] (setting [13]) was 80%; in experiment [1] (setting [16]), 40%; in experiment [2] (setting [13]) it was 90%; in experiment [2] (setting [16]) it was 55%; in experiment [2] (setting [9]) it was 99%; in experiment [2] (setting [10]) it was 85%. For the same molecule, the “Degree of destruction/% after 6 days” value in experiment [3] (setting [5]) amounted to 10%; in experiment [3] (setting [7]), 35%; in experiment [3] (setting [8]) it was 75%; in experiment [3] (setting [6]) it was 0%; in experiment [4] (setting [5]), 45%; in experiment [4] (setting [7]), 50%. In addition, the “Degree of destruction/% after 6 days” value in experiment [4] (setting [8]) turned out to be 75%; in experiment [4] (setting [6]), 35%; in experiment [4] (setting [13]) it was 90%; in experiment [4] (setting [14]), 85%; in experiment [4] (setting [15]) it was 95%; in experiment [4] (setting [16]) it was 55%.
Take `Cc1cc(Cl)cc(C)c1C1=C(O)C2(CCC3(CC2)OCCO3)NC1=O` [Example I-1-a-4]: the “Degree of destruction/% after 6 days” value is 65% in experiment [1] (setting [13]); 40% in experiment [1] (setting [16]); 98% in experiment [1] (setting [9]); 95% in experiment [1] (setting [10]); 65% in experiment [2] (setting [5]); 15% in experiment [2] (setting [6]). The “Degree of destruction/% after 6 days” value is reported as 85% in experiment [2] (setting [13]); 60% in experiment [2] (setting [16]); 5% in experiment [3] (setting [5]); 0% in experiment [3] (setting [7]); 20% in experiment [3] (setting [8]); 0% in experiment [3] (setting [6]). Besides, the “Degree of destruction/% after 6 days” value in experiment [3] (setting [13]) is 65%; in experiment [3] (setting [14]), 95%; in experiment [3] (setting [15]) it was 98%; in experiment [3] (setting [16]) it was 40%; in experiment [4] (setting [5]), 65%; in experiment [4] (setting [7]), 30%. Moreover, the “Degree of destruction/% after 6 days” value in experiment [4] (setting [8]) was 80%; in experiment [4] (setting [6]), 15%.
Consider `Cc1ccc(-c2ccc(Cl)cc2)cc1C1=C(O)C(C)(C)NC1=O` [Example I-1-a-3], for which the “Degree of destruction/% after 6 days” value was 90% in experiment [1] (setting [13]); 0% in experiment [1] (setting [16]); 75% in experiment [1] (setting [9]); 60% in experiment [1] (setting [10]); 35% in experiment [2] (setting [13]); 5% in experiment [2] (setting [16]). In addition, the “Degree of destruction/% after 6 days” value is given as 80% in experiment [2] (setting [9]); 20% in experiment [2] (setting [10]); 20% in experiment [3] (setting [13]); 10% in experiment [3] (setting [14]); 90% in experiment [3] (setting [15]); 0% in experiment [3] (setting [16]).
For the molecule `COC1CCC2(CC1)NC(=O)C(c1cc(C)c(Cl)cc1C)=C2O` (centres unmarked) [Example I-1-a-10], the “Degree of destruction/% after 6 days” value in experiment [1] (setting [13]) is on record as 35%; in experiment [1] (setting [16]), 0%; in experiment [1] (setting [9]), 85%; in experiment [1] (setting [10]) it was 40%; in experiment [2] (setting [13]), 65%; in experiment [2] (setting [16]), 20%. Besides, the “Degree of destruction/% after 6 days” value in experiment [2] (setting [9]) is 75%; in experiment [2] (setting [10]) it was 40%; in experiment [3] (setting [13]), 35%; in experiment [3] (setting [14]), 75%; in experiment [3] (setting [15]), 85%; in experiment [3] (setting [16]) it was 0%.
